This note sets out measurements from ChEMBL document CHEMBL5360573, “Discovery of novel tryptamine derivatives as GluN2B subunit-containing NMDA receptor antagonists via pharmacophore-merging strategy with orally available therapeutic effect of cerebral ischemia” (Eur J Med Chem, 2023).

The test system of data set [1] is SH-SY5Y. Put plainly: Neuroprotective activity against NMDA-induced cell injury in human SH-SY5Y cells assessed as cell viability at 0.05 uM incubated for 6 hrs followed by NMDA treatment for 0.5 hrs and subsequent replacement of fresh medium without compounds by MTT assay relative to control. To be noted: time 6.5 hrs, read-out: Activity. The class given is functional.

The subject of data set [2] is SH-SY5Y. Put plainly: Neuroprotective activity against NMDA-induced cell injury in human SH-SY5Y cells assessed as cell viability at 0.5 uM incubated for 6 hrs followed by NMDA treatment for 0.5 hrs and subsequent replacement of fresh medium without compounds by MTT assay relative to control. Format: functional. The following applies: time 6.5 hrs, read-out: Activity.

The subject of data set [3] is SH-SY5Y. Put plainly: Neuroprotective activity against NMDA-induced cell injury in human SH-SY5Y cells assessed as cell viability at 5 uM incubated for 6 hrs followed by NMDA treatment for 0.5 hrs and subsequent replacement of fresh medium without compounds by MTT assay relative to control. The class given is functional. The following applies: time 6.5 hrs, read-out: Activity.

Data set [4] addresses Glutamate receptor ionotropic, NMDA 2B (Homo sapiens) (UniProt Q13224). As to the kind of experiment: Antagonist activity against GluN2B NMDAR in human SH-SY5Y cells assessed as reduction in NMDA-induced intracellular influx at 5 uM incubated for 6 hrs followed by replacement of fresh medium without compounds and subsequent NMDA treatment by Fluo-4AM dye based calcium mobilization assay. The class given is cell-based. The following applies: filed as antagonist. (In general: Calcium flux is commonly read through the fluorescence of an indicator in the cells.)

The nature of data set [5]: Metabolic stability in human plasma assessed as compound remaining at 2 uM measured immediately by LC-MS/MS analysis. The class given is ADME, cell-free. The following applies: read-out: Stability.
Data set [6] is described as follows: Metabolic stability in human plasma assessed as compound remaining at 2 uM measured after 10 mins by LC-MS/MS analysis. Format: ADME, cell-free. To be noted: read-out: Stability.
Data set [7] is described as follows: Metabolic stability in human plasma assessed as compound remaining at 2 uM measured after 30 mins by LC-MS/MS analysis. The class given is ADME, cell-free. The following applies: read-out: Stability.
The nature of data set [8]: Metabolic stability in human plasma assessed as compound remaining at 2 uM measured after 60 mins by LC-MS/MS analysis. To be noted: read-out: Stability. The class given is ADME, cell-free.
Data set [9] in a line: Metabolic stability in human plasma assessed as compound remaining at 2 uM measured after 120 mins by LC-MS/MS analysis. Format: ADME, cell-free. To be noted: read-out: Stability.
Data set [10] can be described thus: Metabolic stability in human plasma assessed as half life at 2 uM by LC-MS/MS analysis. The class given is ADME, cell-free.

One may read the half-life as how long it takes for the measured level to halve.

The source made the active and inactive calls. The calls are words filed in the database; no cut-off is given here.

Chain of Glutamate receptor ionotropic, NMDA 2B (Homo sapiens) (Q13224 27-1484 limits assumed): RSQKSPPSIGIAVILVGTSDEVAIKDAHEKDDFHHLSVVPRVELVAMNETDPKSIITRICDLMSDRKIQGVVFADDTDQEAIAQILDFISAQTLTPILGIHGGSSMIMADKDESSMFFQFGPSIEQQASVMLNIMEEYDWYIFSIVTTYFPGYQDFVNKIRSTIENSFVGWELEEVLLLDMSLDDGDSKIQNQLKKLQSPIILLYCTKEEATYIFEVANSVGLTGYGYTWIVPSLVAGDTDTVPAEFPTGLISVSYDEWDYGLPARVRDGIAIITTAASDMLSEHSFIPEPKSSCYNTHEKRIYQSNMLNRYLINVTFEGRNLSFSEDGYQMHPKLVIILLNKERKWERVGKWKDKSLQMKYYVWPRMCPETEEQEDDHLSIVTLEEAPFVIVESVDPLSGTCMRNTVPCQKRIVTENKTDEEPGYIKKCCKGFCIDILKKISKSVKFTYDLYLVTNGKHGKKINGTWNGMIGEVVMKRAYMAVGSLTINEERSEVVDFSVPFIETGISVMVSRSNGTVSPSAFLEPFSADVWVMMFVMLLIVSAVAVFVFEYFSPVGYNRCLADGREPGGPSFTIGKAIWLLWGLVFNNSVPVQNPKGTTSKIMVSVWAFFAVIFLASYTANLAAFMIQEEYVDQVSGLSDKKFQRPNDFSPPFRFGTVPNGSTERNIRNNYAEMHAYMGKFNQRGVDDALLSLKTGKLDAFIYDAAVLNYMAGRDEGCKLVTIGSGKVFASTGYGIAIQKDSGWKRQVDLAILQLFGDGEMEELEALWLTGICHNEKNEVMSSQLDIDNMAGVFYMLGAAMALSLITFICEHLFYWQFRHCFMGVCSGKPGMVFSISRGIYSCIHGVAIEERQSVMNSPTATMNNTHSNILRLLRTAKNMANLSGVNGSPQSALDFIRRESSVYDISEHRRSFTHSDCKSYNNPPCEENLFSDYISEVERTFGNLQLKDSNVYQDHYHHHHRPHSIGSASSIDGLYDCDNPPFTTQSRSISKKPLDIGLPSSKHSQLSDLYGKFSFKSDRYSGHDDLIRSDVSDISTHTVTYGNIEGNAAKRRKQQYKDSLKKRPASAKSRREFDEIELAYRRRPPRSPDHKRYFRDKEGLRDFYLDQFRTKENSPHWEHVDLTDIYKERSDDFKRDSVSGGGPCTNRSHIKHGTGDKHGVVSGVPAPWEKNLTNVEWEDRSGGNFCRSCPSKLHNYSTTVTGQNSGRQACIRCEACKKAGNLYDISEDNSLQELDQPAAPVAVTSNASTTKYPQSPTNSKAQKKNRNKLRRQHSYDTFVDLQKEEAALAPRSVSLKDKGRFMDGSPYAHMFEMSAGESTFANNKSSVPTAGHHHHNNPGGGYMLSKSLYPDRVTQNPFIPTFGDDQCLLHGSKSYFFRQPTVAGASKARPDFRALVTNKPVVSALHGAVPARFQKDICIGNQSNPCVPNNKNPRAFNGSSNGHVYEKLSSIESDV

`O=C(/C=C/c1ccc(O)cc1)NCCc1cn(Cc2cccc(F)c2)c2ccccc12`: the viability at 0.05 µM in the data set with SH-SY5Y [1] was 28.6%. Besides, in the data set with SH-SY5Y [2], the viability at 0.5 µM amounted to 21.8%. Also, the viability at 5 µM in the data set on SH-SY5Y [3] is 18.8%.
For the compound `O=C(/C=C/c1ccc(O)cc1)NCCc1cn(CCCc2ccccc2)c2ccccc12`, in the data set on SH-SY5Y [1], the viability at 0.05 µM was found to be 20.1%. Besides, the viability at 0.5 µM in the data set with SH-SY5Y [2] turned out to be 19.3%. In addition, the viability at 5 µM in the data set with SH-SY5Y [3] stood at 12.5%.
In the same order, the values of `O=C(/C=C/c1ccc(O)c(O)c1)NCCc1cn(Cc2ccccc2)c2ccccc12` are 34.8%, 47.1% and 48.2%.
The like results for `COc1ccc(Cn2cc(CCNC(=O)/C=C/c3ccc(O)cc3)c3ccccc32)cc1` were, in that order, 18.6%, 24.8% and 30.9%.
The like results for `Cc1ccc(Cn2cc(CCNC(=O)/C=C/c3ccc(O)cc3)c3ccccc32)cc1` were, in that order, 19.4%, 28.4% and 21%.
Consider `O=C(/C=C/c1ccc(O)cc1)NCCc1cn(Cc2ccccc2F)c2ccccc12`, for which the viability at 0.05 µM in the data set with SH-SY5Y [1] was 32.4%. In the data set with SH-SY5Y [2], the viability at 0.5 µM came to 32.4%. In addition, the viability at 5 µM with SH-SY5Y [3] came to 24.7%.
Regarding `O=C(/C=C/c1ccc(O)cc1)NCCc1cn(Cc2ccccc2Cl)c2ccccc12`, in the data set on SH-SY5Y [1], the viability at 0.05 µM was determined as 13.6%. The viability at 0.5 µM in the data set with SH-SY5Y [2] was 10.1%. In addition, in the data set with SH-SY5Y [3], the viability at 5 µM was determined as 5.9%.
In the case of `CC(C)Cn1cc(CCNC(=O)/C=C/c2ccc(O)cc2)c2ccccc21`, the viability at 0.05 µM in the data set on SH-SY5Y [1] worked out at 24.9%. Besides, in the data set on SH-SY5Y [2], the viability at 0.5 µM was 15.7%. In the data set with SH-SY5Y [3], the viability at 5 µM was found to be 14.4%.
In the same order, the values of `O=C(/C=C/c1ccc(O)cc1)NCCc1cn(Cc2ccccc2Br)c2ccccc12` are 45.1%, 32.3% and 36.7%.
In the same order, the values of `O=C(/C=C/c1ccc(O)cc1)NCCc1cn(CC2CC2)c2ccccc12` are 19.9%, 18.6% and 9.7%.
For the compound `CC(C(O)c1ccc(O)cc1)N1CCC(Cc2ccccc2)CC1` (stereo unspecified) [IFENPRODIL], in the data set with SH-SY5Y [1], the viability at 0.05 µM worked out at 29.4%. The viability at 0.5 µM with SH-SY5Y [2] was 40.4%. The viability at 5 µM in the data set on SH-SY5Y [3] is 41%. The outcome in [4] was Active. The remaining at 0 min, 2 µM in [5] was determined as 100%. Moreover, in [6], the remaining at 10 min, 2 µM worked out at 97%. In data set [7], the remaining at 0.5 h, 2 µM is 89.6%. In addition, in [8], the remaining at 1 h, 2 µM was 93.5%. Besides, the remaining at 2 h, 2 µM in data set [9] came out at 91.3%. The half-life at 2 µM in [10] was > 4.82 h.
In the case of `O=C(/C=C/c1ccc(O)cc1)NCCc1cn(Cc2ccc(Br)cc2)c2ccccc12`, in the data set on SH-SY5Y [1], the viability at 0.05 µM is 42.6%. Also, the viability at 0.5 µM in the data set with SH-SY5Y [2] came to 36.1%. Besides, in the data set with SH-SY5Y [3], the viability at 5 µM was 25.5%.
The like results for `CCn1cc(CCNC(=O)/C=C/c2ccc(O)cc2)c2ccccc21` were, in that order, 19.9%, 22.4% and 19.9%.
